The values below come from patent publication US5606038A, “Amphiphilic polyene macrolide antibiotic compounds” (Competitive Technologies, Inc., priority 1995, dated 1997).

The MIC is the lowest concentration found to suppress growth. A high value points to weaker potency. What is called HC50 is the concentration giving 50% haemolysis.

SMILES strings stand for the structures. Converted amounts (≈) assume the structure as drawn. Where two headings read alike, the source gives them in different places.

Data set [1] deals with Cryptococcus neoformans (isolate NIH C-1). Briefly: MIC against infecting isolate of Example VI. It counts as cell-based.
The nature of data set [2]: hemolysis, 50% release of hemoglobin from human red blood cells. Conditions: human, red blood cells.
Data set [3] deals with Cryptococcus neoformans (isolate NIH C-1). Briefly: survival of mice infected with Cryptococcus neoformans (Example VI). Type of data set: in vivo, Cryptococcus neoformans in ICR mice. To be noted: 30 mg/kg i.p. once per day. An excerpt:
Ten immunocompetent ICR mice weighing 30 g each in two groups were inoculated intravenously with 255 colony forming units of Cryptococcus neoformans (isolate NIH C-1) per mouse.

As to `COCCOCCOCCOCCOCCOCCNC(=O)[C@H]1[C@@H]2C[C@@H](O[C@@H]3O[C@H](C)[C@@H](O)[C@H](N)[C@@H]3O)/C=C/C=C/C=C/C=C/C=C/C=C/C=C/[C@H](C)[C@@H](O)[C@@H](C)[C@H](C)OC(=O)C[C@H](O)C[C@H](O)CC[C@@H](O)[C@H](O)C[C@H](O)C[C@](O)(C[C@@H]1O)O2` [Example II], the minimum inhibitory concentration (MIC) in data set [1] was no more than 6.06 mg/L; in data set [1] (48 h), 1.51 mg/L (≈ 1.26 µM); in data set [1] (72 h) it was 3.03 mg/L (≈ 2.52 µM). In addition, the HC50 at 1 h in data set [2] was 42 µM. The percent survival in data set [3] (day 9 post-infection) stood at 100%; in data set [3] (day 10 post-infection), 100%; in data set [3] (day 13 post-infection), 100%; in data set [3] (day 14 post-infection) it was 90%; in data set [3] (day 15 post-infection), 90%; in data set [3] (day 16 post-infection), 90%. Further, the percent survival in data set [3] (day 17 post-infection) came to 90%; in data set [3] (day 18 post-infection), 90%; in data set [3] (day 19 post-infection) it was 90%; in data set [3] (day 20 post-infection), 90%; in data set [3] (day 21 post-infection), 90%; in data set [3] (day 22 post-infection), 70%. The percent survival in data set [3] (day 25 post-infection) is given as 70%; in data set [3] (day 26 post-infection) it was 60%; in data set [3] (day 27 post-infection), 60%; in data set [3] (day 28 post-infection), 50%; in data set [3] (day 29 post-infection), 50%; in data set [3] (day 30 post-infection) it was 40%.
